Data reported in ChEMBL document CHEMBL4028801, “A multifactorial approach to hepatobiliary transporter assessment enables improved therapeutic compound development” (Toxicol Sci, 2013).
pIC50: −log10 of the molar value. Positions of bridges follow the written chain, without caps; N, C: chain ends. Residues, ends and D or L forms follow the SMILES beside them.

Experiments:
[1] = target: Bile salt export pump (Homo sapiens, UniProt O95342); assay: Inhibition of human BSEP overexpressed in Sf9 cell membrane vesicles assessed as uptake of [3H]-taurocholate in presence of ATP measured after 15 to 20 mins by membrane vesicle transport assay; format: ADME, cell-based
[2] = target: ATP-binding cassette sub-family C member 2 (Homo sapiens, UniProt Q92887); assay: Inhibition of human MRP2 overexpressed in Sf9 cell membrane vesicles assessed as uptake of [3H]-estradiol-17beta-D-glucuronide in presence of ATP and GSH measured after 20 mins by membrane vesicle transport assay
[3] = target: ATP-binding cassette sub-family C member 3 (Homo sapiens, UniProt O15438); assay: Inhibition of human MRP3 overexpressed in Sf9 insect cell membrane vesicles assessed as uptake of [3H]-estradiol-17beta-D-glucuronide in presence of ATP and GSH measured after 10 mins by membrane vesicle transport assay; format: ADME, cell-based
[4] = target: T1, ATP-binding cassette sub-family C member 4 (Homo sapiens, UniProt O15439); assay: Inhibition of human MRP4 overexpressed in Sf9 cell membrane vesicles assessed as uptake of [3H]-estradiol-17beta-D-glucuronide in presence of ATP and GSH measured after 20 mins by membrane vesicle transport assay; format: ADME, cell-based
T1 sequence (O15439 whole entry): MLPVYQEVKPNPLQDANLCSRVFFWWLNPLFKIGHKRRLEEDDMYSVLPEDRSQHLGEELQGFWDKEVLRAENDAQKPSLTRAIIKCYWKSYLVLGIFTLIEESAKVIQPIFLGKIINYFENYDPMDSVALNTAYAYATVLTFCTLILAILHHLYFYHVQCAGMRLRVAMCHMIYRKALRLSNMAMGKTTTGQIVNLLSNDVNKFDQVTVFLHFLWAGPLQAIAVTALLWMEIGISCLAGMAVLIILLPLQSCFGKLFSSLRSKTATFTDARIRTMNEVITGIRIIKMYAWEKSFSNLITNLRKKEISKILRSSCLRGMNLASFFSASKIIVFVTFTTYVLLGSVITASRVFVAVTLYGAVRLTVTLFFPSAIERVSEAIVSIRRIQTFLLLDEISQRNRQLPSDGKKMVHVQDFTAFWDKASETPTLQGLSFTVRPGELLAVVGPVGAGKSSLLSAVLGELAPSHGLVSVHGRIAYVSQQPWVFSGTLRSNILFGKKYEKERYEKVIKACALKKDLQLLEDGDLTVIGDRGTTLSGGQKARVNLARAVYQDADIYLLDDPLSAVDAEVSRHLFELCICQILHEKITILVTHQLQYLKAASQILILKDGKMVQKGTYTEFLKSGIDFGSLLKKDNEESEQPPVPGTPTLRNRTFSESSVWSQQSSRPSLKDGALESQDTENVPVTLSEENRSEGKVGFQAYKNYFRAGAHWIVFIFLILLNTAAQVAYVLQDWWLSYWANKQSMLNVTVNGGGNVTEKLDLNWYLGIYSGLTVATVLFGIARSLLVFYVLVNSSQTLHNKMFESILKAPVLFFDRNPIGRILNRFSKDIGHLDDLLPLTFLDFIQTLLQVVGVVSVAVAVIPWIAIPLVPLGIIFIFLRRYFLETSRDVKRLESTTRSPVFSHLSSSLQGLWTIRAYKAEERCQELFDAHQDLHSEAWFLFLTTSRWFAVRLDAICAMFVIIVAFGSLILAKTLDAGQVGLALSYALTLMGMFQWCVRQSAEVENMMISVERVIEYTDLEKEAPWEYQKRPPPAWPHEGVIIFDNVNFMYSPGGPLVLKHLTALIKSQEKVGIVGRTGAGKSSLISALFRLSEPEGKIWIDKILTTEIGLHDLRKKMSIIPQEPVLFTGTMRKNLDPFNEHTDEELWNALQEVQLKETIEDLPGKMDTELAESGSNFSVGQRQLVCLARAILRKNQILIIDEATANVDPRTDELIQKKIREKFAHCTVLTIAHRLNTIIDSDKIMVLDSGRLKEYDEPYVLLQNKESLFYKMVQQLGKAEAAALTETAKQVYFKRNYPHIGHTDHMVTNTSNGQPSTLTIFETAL

Sequence of ATP-binding cassette sub-family C member 3 (O15438 whole entry): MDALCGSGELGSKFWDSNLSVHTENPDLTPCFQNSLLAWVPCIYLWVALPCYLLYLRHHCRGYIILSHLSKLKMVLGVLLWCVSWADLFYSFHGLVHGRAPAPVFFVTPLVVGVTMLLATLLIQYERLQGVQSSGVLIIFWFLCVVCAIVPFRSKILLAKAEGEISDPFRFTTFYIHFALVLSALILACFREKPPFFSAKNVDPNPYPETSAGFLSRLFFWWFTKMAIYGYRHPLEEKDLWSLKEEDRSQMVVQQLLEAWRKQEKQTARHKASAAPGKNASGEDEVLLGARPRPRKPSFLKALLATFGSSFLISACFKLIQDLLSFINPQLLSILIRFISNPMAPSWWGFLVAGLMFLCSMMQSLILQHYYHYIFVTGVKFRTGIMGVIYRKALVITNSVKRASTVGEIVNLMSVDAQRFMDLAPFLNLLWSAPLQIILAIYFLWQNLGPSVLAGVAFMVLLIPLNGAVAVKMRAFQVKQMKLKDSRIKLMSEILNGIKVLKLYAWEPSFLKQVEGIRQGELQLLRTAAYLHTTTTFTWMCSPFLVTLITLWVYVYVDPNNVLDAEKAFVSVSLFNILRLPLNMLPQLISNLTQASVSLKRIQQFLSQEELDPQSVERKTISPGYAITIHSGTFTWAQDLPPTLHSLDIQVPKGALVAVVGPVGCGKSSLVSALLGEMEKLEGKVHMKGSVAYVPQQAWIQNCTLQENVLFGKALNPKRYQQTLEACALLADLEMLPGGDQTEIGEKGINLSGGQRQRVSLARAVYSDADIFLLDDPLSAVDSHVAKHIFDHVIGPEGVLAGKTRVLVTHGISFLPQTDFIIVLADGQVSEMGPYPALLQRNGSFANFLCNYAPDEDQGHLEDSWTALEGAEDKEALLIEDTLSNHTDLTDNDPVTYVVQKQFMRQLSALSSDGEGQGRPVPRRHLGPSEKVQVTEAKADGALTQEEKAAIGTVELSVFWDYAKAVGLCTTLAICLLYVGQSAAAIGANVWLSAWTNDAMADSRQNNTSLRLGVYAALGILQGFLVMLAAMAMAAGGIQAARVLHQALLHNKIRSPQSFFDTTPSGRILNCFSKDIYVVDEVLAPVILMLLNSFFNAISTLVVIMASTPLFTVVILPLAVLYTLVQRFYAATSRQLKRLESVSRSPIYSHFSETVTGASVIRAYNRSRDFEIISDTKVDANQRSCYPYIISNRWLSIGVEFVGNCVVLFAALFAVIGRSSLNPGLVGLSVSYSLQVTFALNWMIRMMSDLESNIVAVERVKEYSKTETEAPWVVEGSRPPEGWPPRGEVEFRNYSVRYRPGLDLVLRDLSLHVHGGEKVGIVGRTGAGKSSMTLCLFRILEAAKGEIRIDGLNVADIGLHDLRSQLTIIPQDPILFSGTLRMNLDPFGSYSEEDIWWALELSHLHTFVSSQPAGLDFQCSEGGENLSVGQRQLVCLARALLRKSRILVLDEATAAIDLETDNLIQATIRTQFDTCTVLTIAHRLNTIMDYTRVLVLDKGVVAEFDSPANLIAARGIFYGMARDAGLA
Sequence of Bile salt export pump (O95342 whole entry): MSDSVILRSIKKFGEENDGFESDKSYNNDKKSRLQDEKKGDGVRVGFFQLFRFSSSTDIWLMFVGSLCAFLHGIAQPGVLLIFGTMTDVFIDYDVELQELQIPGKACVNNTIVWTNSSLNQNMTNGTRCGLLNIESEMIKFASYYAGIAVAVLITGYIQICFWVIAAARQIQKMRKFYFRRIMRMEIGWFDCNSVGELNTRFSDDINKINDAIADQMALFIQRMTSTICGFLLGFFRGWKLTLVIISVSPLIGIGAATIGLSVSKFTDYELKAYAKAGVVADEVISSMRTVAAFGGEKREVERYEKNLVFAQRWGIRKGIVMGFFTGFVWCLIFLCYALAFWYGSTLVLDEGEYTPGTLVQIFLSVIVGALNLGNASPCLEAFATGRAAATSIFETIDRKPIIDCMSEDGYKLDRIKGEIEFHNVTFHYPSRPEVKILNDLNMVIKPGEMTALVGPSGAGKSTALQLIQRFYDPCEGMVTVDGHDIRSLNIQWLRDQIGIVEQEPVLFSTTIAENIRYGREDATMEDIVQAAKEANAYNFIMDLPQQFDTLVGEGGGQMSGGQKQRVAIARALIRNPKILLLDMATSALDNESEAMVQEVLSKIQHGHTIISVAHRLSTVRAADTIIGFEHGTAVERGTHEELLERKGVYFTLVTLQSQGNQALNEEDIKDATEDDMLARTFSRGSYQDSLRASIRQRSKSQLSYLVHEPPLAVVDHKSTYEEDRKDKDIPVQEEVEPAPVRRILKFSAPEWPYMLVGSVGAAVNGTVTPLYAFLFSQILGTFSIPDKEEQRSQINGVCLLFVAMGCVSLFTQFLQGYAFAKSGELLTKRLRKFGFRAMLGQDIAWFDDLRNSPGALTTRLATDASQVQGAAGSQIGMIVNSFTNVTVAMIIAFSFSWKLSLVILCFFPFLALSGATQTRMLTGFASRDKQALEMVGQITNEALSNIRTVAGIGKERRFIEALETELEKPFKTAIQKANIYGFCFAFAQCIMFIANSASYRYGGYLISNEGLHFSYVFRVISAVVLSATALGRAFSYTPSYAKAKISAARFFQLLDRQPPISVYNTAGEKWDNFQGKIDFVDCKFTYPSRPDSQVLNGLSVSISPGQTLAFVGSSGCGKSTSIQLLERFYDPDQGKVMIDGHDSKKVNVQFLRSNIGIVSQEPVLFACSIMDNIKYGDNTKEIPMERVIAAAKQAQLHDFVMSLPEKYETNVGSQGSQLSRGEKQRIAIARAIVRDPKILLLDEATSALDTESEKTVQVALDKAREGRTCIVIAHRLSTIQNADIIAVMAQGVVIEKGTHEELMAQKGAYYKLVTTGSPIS
Sequence of ATP-binding cassette sub-family C member 2 (Q92887 whole entry): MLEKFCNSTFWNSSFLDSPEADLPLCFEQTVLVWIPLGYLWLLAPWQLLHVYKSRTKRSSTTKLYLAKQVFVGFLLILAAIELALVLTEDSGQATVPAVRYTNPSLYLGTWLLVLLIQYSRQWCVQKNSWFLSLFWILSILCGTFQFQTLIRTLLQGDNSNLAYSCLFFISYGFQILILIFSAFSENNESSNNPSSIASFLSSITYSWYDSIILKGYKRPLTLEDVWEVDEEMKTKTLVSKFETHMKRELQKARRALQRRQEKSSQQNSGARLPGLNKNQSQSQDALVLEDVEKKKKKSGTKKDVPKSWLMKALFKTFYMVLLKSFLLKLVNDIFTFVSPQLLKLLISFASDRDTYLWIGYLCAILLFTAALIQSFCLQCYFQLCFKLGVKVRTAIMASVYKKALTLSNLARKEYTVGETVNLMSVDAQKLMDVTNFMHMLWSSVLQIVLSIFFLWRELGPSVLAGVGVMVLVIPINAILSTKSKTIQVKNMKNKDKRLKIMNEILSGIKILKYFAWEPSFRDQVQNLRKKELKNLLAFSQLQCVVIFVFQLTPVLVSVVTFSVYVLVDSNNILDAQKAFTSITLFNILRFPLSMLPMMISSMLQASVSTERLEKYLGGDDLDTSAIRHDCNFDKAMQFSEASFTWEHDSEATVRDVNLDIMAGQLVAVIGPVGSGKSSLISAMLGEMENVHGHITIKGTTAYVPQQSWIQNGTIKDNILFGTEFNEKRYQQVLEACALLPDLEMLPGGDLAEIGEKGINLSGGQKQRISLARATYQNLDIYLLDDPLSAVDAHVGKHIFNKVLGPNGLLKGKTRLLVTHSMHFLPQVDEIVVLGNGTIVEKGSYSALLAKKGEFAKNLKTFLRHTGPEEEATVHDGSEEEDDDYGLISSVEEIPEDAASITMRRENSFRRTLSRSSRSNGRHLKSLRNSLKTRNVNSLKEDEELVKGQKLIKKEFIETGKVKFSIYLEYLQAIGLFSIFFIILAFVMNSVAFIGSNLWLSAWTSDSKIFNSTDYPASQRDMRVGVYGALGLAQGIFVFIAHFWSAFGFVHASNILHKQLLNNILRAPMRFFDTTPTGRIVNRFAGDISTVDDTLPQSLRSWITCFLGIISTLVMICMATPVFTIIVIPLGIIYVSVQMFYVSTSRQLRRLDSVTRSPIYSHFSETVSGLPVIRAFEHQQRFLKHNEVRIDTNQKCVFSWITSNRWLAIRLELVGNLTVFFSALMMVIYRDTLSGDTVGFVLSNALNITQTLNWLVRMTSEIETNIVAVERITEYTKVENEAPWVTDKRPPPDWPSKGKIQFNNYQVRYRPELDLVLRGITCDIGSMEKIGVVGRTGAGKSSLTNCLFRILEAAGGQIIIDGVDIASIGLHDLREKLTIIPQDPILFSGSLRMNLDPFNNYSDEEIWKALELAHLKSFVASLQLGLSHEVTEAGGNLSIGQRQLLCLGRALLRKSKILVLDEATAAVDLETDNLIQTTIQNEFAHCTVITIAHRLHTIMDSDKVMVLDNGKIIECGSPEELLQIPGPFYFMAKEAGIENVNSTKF

SMILES	pIC50 [1]	pIC50 [2]	pIC50 [3]	pIC50 [4]
CO[C@H]1/C=C/O[C@@]2(C)Oc3c(C)c(O)c4c(O)c(c5c(nc6cc(C)ccn65)c4c3C2=O)NC(=O)/C(C)=C\C=C\[C@H](C)[C@H](O)[C@@H](C)[C@@H](O)[C@@H](C)[C@H](OC(C)=O)[C@@H]1C [RIFAXIMIN]	4.38	4.81	4.19	4.52
Cc1noc(NS(=O)(=O)c2ccc(N)cc2)c1C [SULFISOXAZOLE]	< 3.88	< 3.88	< 3.88	< 3.88
O=C(NCCN1CCOCC1)c1ccc(Cl)cc1 [MOCLOBEMIDE]	< 3.88	< 3.88	< 3.88	< 3.88
CC(C)OC(=O)CCC/C=C\C[C@@H]1[C@@H](/C=C/[C@@H](O)COc2cccc(C(F)(F)F)c2)[C@H](O)C[C@@H]1O [TRAVOPROST]	4.36	< 3.88	< 3.88	4.13
Cn1c(=O)c2[nH]cnc2n(C)c1=O [AMINOPHYLLINE]	< 3.88	< 3.88	< 3.88	3.88
NC(=O)CN1CCCC1=O	< 3.88	< 3.88	< 3.88	< 3.88
NCCCC[C@H](NC(=O)[C@@H]1CCCN1C(=O)[C@@H]1CSSC[C@H](NC(=O)CNC(=O)CNC(=O)CN)C(=O)N[C@@H](Cc2ccc(O)cc2)C(=O)N[C@@H](Cc2ccccc2)C(=O)N[C@@H](CCC(N)=O)C(=O)N[C@@H](CC(N)=O)C(=O)N1)C(=O)NCC(N)=O (H-GGGCYFQNCPKG-NH2; disulfide 4-9)	< 3.88	< 3.88	< 3.88	< 3.88
CCOC(=O)C1=C[C@@H](OC(CC)CC)[C@H](NC(C)=O)[C@@H](N)C1 [OSELTAMIVIR PHOSPHATE]	< 3.88	< 3.88	< 3.88	< 3.88
CC(C)[C@H]1CC[C@H](C(=O)N[C@H](Cc2ccccc2)C(=O)O)CC1 [NATEGLINIDE]	< 3.88	< 3.88	3.98	< 3.88
Cc1cn([C@H]2C=C[C@@H](CO)O2)c(=O)[nH]c1=O [STAVUDINE]	< 3.88	< 3.88	< 3.88	< 3.88
CCC1(C)CC(=O)NC1=O (stereo unspecified) [ETHOSUXIMIDE]	< 3.88	< 3.88	< 3.88	< 3.88
COc1ccc(CC2c3cc(OC)c(OC)cc3CC[N+]2(C)CCC(=O)OCCCCCOC(=O)CC[N+]2(C)CCc3cc(OC)c(OC)cc3C2Cc2ccc(OC)c(OC)c2)cc1OC (stereo unspecified) [ATRACURIUM BESYLATE]	< 3.88	< 3.88	< 3.88	< 3.88
CCC[C@H](N[C@@H](C)C(=O)N1[C@H](C(=O)O)C[C@@H]2CCCC[C@@H]21)C(=O)OCC [PERINDOPRIL ERBUMINE]	< 3.88	< 3.88	< 3.88	< 3.88
CNCCC=C1c2ccccc2CCc2ccccc21 [NORTRIPTYLINE]	< 3.88	< 3.88	< 3.88	< 3.88
NNC(=O)c1ccncc1 [ISONIAZID]	< 3.88	< 3.88	< 3.88	< 3.88
CC(C)(C)NCC(O)c1cc(O)cc(O)c1 (stereo unspecified) [TERBUTALINE]	< 3.88	< 3.88	< 3.88	< 3.88
Cc1nnc(SCC2=C(C(=O)O)N3C(=O)[C@@H](NC(=O)Cn4cnnn4)[C@H]3SC2)s1 [CEFAZOLIN SODIUM]	< 3.88	< 3.88	< 3.88	4.27
NS(=O)(=O)c1cc2c(cc1Cl)NCNS2(=O)=O [HYDROCHLOROTHIAZIDE]	< 3.88	< 3.88	< 3.88	< 3.88
NC(=O)CC[C@@H]1NC(=O)[C@H](Cc2ccccc2)NC(=O)[C@H](Cc2ccc(O)cc2)NC(=O)[C@@H](N)CSSC[C@@H](C(=O)N2CCC[C@H]2C(=O)N[C@@H](CCCN=C(N)N)C(=O)NCC(N)=O)NC(=O)[C@H](CC(N)=O)NC1=O [VASOPRESSIN]	< 3.88	< 3.88	< 3.88	< 3.88
